Measurements from PMC5095863 (Chembiochem, 2016).

Legend:
Assay type in all cases: biochemical
SIRT1 = molecular target: T1, SIRT1 (Homo sapiens, UniProt Q96EB6); test: Evaluation of SIRT inhibitors and activators with SFP3, SIRT1; conditions: hydrolysis of 2.5 μM SFP3, 7 nM SIRT1, 500 μM NAD+, 37 °C, 60 min
T1 sequence (Q96EB6 1-747): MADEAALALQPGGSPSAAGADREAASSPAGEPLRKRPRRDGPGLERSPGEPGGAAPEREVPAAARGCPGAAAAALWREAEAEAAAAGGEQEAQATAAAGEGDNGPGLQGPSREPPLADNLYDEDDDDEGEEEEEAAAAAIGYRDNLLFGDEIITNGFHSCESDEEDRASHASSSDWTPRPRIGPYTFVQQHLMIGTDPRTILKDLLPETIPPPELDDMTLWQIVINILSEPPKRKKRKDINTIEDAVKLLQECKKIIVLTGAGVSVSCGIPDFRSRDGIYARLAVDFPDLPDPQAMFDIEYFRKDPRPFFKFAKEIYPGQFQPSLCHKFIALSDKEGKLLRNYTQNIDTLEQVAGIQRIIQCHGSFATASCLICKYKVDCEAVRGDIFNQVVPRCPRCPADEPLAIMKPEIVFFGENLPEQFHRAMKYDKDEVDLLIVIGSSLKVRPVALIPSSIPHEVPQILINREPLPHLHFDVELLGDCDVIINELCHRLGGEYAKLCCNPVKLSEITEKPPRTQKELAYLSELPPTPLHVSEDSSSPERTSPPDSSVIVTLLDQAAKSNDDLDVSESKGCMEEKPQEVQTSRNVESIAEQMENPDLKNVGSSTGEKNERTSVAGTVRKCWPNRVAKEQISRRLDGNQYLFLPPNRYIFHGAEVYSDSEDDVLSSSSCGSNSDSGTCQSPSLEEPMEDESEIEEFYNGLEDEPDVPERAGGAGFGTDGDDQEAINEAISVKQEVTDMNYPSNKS

SIRT6 [1] = molecular target: T2, SIRT6 (Homo sapiens, UniProt Q8N6T7); test: Evaluation of SIRT inhibitors and activators with SFP3, SIRT6
SIRT6 [2] = molecular target: T2, SIRT6; test: Fluorescence enhancement due to enzymatic reaction of SFP1-3 with SIRT6; conditions: 5 mM NAM, 48 nM SIRT6, 500 μM NAD, 37 °C

T2 sequence (Q8N6T7 whole entry): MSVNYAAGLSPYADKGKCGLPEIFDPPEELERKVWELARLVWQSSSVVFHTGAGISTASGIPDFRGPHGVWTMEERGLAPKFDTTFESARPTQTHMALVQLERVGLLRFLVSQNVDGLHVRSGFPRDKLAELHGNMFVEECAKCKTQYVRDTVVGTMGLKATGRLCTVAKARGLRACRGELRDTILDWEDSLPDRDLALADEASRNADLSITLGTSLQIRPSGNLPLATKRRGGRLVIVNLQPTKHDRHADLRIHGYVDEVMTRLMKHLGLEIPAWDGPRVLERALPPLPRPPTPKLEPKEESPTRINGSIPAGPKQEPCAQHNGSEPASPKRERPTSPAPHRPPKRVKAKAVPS

| Structure (SMILES) | effect on SIRT1 activity (SIRT1) | IC50 (SIRT6 [1]) [µM] | effect on SIRT6 activity (SIRT6 [1]; hydrolysis of 2.5 μM SFP3, 48 nM SIRT6, 500 μM NAD+, 37 °C, 60 min) | effect on SIRT6-dependent fluorescence increments of SFP2 and SFP3 (SIRT6 [2]) |
| --- | --- | --- | --- | --- |
| Oc1ccc(/C=C/c2cc(O)cc(O)c2)cc1 [Resveratrol, resveratrol] | did not affect | ~190 |  |  |
| O=c1c(O)c(-c2ccc(O)c(O)c2)oc2cc(O)cc(O)c12 [Quercetin, quercetin] | inhibition at lower concentration, but activation at higher concentration |  | inhibition at lower concentration, but activation at higher concentration |  |
| NC(=O)c1cccnc1 [NAM, nicotinamide] |  |  |  | suppressed |
